Several values for one entry are separate records, joined by “and”; a condition that tells them apart may be missing. Identical values can stand only once.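 96-well plates; 48 h exposure; 5 concentrations. Endpoints by linear interpolation between flanking doses. Not reached: highest tested concentration assigned. At the GI50, growth is halved. The concentration for full growth arrest is given as TGI.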
Key:
Assay in all cases: NCI anticancer screen, dose series, 48 h
NCI-H226 lung = system: NCI-H226 lung
NCI-H460 lung = system: NCI-H460 lung
U251 CNS = system: U251 CNS
UACC-62 melanoma = system: UACC-62 melanoma
SK-OV-3 ovarian = system: SK-OV-3 ovarian
NCI-H522 lung = system: NCI-H522 lung
M14 melanoma = system: M14 melanoma
OVCAR-3 ovarian = system: OVCAR-3 ovarian
OVCAR-8 ovarian = system: OVCAR-8 ovarian
HOP-62 NSCLC = system: HOP-62 NSCLC

Row | SMILES | GI50 (NCI-H226 lung) [µM] | TGI (NCI-H226 lung) [µM] | GI50 (NCI-H460 lung) [µM] | TGI (NCI-H460 lung) | GI50 (U251 CNS) [µM] | TGI (U251 CNS) | GI50 (UACC-62 melanoma) [µM] | TGI (UACC-62 melanoma) [µM] | GI50 (SK-OV-3 ovarian) [µM] | TGI (SK-OV-3 ovarian) | GI50 (NCI-H522 lung) [µM] | TGI (NCI-H522 lung) | GI50 (M14 melanoma) [µM] | TGI (M14 melanoma) | GI50 (OVCAR-3 ovarian) [µM] | TGI (OVCAR-3 ovarian) | GI50 (OVCAR-8 ovarian) [µM] | TGI (OVCAR-8 ovarian) | GI50 (HOP-62 NSCLC) [µM] | TGI (HOP-62 NSCLC)
1 | COc1c2ccccc2c(O)c2c(=O)c(C(=O)O)cn(C)c12 | 17.4 | > 100 | > 100 | > 100 µM | > 100 | > 100 µM | 24.7 | > 100 | > 100 | > 100 µM | > 100 | > 100 µM | > 100 | > 100 µM | > 100 | > 100 µM | > 100 | > 100 µM | > 100 | > 100 µM
2 | Nc1ccn([C@H]2C[C@@H](O)[C@@H](CO)S2)c(=O)n1 | > 100 | > 100 | 34.9 | > 100 µM | > 100 | > 100 µM | > 100 | > 100 | > 100 | > 100 µM | – | > 100 µM | > 100 | > 100 µM | > 100 | > 100 µM | 11.2 | > 100 µM | > 32 | > 100 µM
3 | O=C(Nc1cnn2ccc(N3CCC[C@@H]3c3cc(F)ccc3F)nc12)N1CC[C@H](O)C1 | > 100 | > 100 | > 100 | > 100 µM | > 100 | > 100 µM | > 100 | > 100 | > 100 | > 100 µM | > 100 | > 100 µM | > 100 | > 100 µM | > 100 | > 100 µM | > 100 | > 100 µM | > 100 | > 100 µM
4 | CC[N+](CC)=c1ccc2nc3c(cc(NCc4ccccc4)c4ccccc43)oc-2c1 | 0.358 | 1.83 | 0.201 | 0.435 µM | 0.196 | 0.962 µM | 0.944 | 2.52 | 1.12 | 2.32 µM | 0.149 | 0.567 µM | 0.273 | 0.75 µM | 0.0951 | 0.557 µM | 0.362 | 2.38 µM | 0.512 | 1.86 µM
5 | CC(=O)NNc1nc(C)c(C(/C=C/c2ccc(Cl)cc2)=N\NS(=O)(=O)c2ccc(C)cc2)s1 | – | > 100 | – | > 100 µM | – | > 100 µM | – | > 100 | – | > 100 µM | – | > 100 µM | – | > 100 µM | – | > 100 µM | – | > 100 µM | – | > 100 µM
6 | CCC(C(=O)[O-])C(=O)[O-].CCC(C(=O)[O-])C(=O)[O-].N.N.NCCCCCN.[Pt+4].[Pt+4] | 23.4 | 94.7 | 21.3 | > 100 µM | > 100 | > 100 µM | 38.3 | > 100 | > 100 | > 100 µM | > 100 | > 100 µM | > 100 | > 100 µM | > 100 | > 100 µM | > 100 | > 100 µM | > 100 | > 100 µM
7 | Cc1ccc(S(=O)(=O)CNC(=S)CCCC(=S)NCS(=O)(=O)c2ccc(C)cc2)cc1 | – | > 100 | – | > 100 µM | – | > 100 µM | – | > 100 | – | > 100 µM | – | > 100 µM | – | > 100 µM | – | > 100 µM | – | > 100 µM | – | > 100 µM
8 | O=c1cccc(C#Cc2ccccc2)o1 | 13.2 | > 36.3 | 3.91 | > 100 µM | 9.2 | > 36.4 µM | 6.32 | 19.7 | 16.2 | > 44.8 µM | 4.06 | > 40.4 µM | 5.9 | > 22.8 µM | 2.42 | 11.1 µM | > 22.8 | > 100 µM | 4.63 | 15.4 µM
9 | CC(=O)OCC1OC(OC2CC3C(C)(C)C(OC(C)=O)CC[C@]3(C)C3CCC45CC4(CC[C@H]5C(C)CC(O)C4OC4(C)C)[C@]23C)C(O)C(O)C1O (stereo not given in full) | – | 11.6 | 3.21 | 5.75 µM and 9.38 µM | 3.13 | 7.73 µM and 11.8 µM | > 60 | – | 3.22 | 8.7 µM and 11.2 µM | 1.91 | 5.33 µM and 3.91 µM | – | 6.75 µM and 6.61 µM | – | 8.76 µM and 7.08 µM | 3 | 8.24 µM and 9.67 µM | 2.39 | 12.6 µM and 5.37 µM
10 | CCOc1ccccc1NC(=O)CCc1nnc2s/c(=C\CCc3ccccc3)c(=O)n12 | – | > 100 | – | > 100 µM | – | > 100 µM | – | > 100 | – | > 100 µM | – | > 100 µM | – | > 100 µM | – | > 100 µM | – | > 100 µM | – | > 100 µM
11 | NC(=O)N/N=C(\Cc1nc2ccc(C(=O)c3ccccc3)cc2[nH]c1=O)C(=O)Nc1ccc(Br)cc1 | – | > 100 | – | > 100 µM | – | > 100 µM | – | > 100 | – | > 100 µM | – | > 100 µM | – | > 100 µM | – | > 100 µM | – | > 100 µM | – | > 100 µM
12 | COc1cc2cc(Oc3ccc(NC(=O)Nc4ccccc4)cc3)c(C)nc2cc1OCCN1CCCCC1 | 5.82 | 12 | 6.05 | 11.2 µM | 5.32 | 11.4 µM | 5.89 | 11 | 7.8 | 16.6 µM | 6.22 | 13 µM | 5.63 | 11.1 µM | 6.31 | 13.3 µM | 6.26 | 15.3 µM | 5.96 | 12.9 µM
13 | NCCNCC(O)CO (stereo not given) | – | > 100 | – | > 100 µM | – | > 100 µM | – | > 100 | – | > 100 µM | – | > 100 µM | – | > 100 µM | – | > 100 µM | – | > 100 µM | – | > 100 µM

— PubChem BioAssay (NCI)
